13 compounds from US20050239780A1, “Tetrahydropyran derivative” (priority 2002, published 2005) can be followed below.

The test system of assay [1] is plasma lipid in KK-Ay mice. As to the kind of experiment: Pharmacological test in KK-Ay mice. Format: in vivo, male KK-Ay mice. To be noted: oral once a day for 7 days, relative to control group. As for the experimental part: The influence of test compounds on plasma lipid in vivo was investigated with KK-Ay mice. A 0.5% methyl cellulose suspension containing a test compound was forcedly orally administered to male KK-Ay mice once a day for continuos 7 days. After the final administration, the mice were fed with nothing, and after 6 hours, their blood was collected under anesthetization with diethyl ether. Using the automatic analyzer, Hitachi's Model 7250, the total cholesterol, HDL cholesterol and triglyceride in plasma were measured. Non-HDL cholesterol was obtained by subtracting HDL cholesterol from total cholesterol. The plasma lipid lowering effect of the test compound was expressed in percentage relative to the control group.

The subject of assay [2] is plasma lipid in high-cholesterol feed-loaded rats. As to the kind of experiment: Pharmacological test on high-cholesterol feed-loaded rats. To be noted: high-cholesterol feed-loaded male SD rats, oral once a day for 7 days, relative to control group; for ED50: Rattus norvegicus, 168 h, read-out: ED50 non-HDL cholesterol lowering effect. Format: in vivo. As for the experimental part:
3. Pharmacological Test on High-Cholesterol Feed-Loaded Rats
The influence of test compounds on plasma lipid in vivo was investigated with high-cholesterol feed-loaded rats. A 0.5% methyl cellulose suspension containing a test compound was forcedly orally administered to male SD rats loaded with high-cholesterol feed (1.5% cholesterol, 10% coconut oil, 0.5% cholic acid), once a day for continuous 7 days. After the final administration, the rats were fed with nothing, and after 6 hours, their blood was collected under anesthetization with diethyl ether. Using an automatic analyzer, Hitachi's Model 7250, the total cholesterol, HDL cholesterol and triglyceride in plasma were measured. Non-HDL cholesterol was obtained by subtracting HDL cholesterol from total cholesterol. The non-HDL cholesterol lowering effect of the test compound, relative to the control group, was represented by ED50.

Assay [3] deals with VLDL secretion in vivo in rats. The experiment in a line: Measurement of blood cholesterol and triglyceride in rats (VLDL secretion, Triton WR-1339). To be noted: male SD rats, oral, Triton WR-1339 400 mg/kg i.v. after 1 hour, blood after 4 hours; for ED50: Rattus norvegicus. As for the experimental part:
2. Measurement of Blood Cholesterol and Triglyceride in Rats
The influence of test compounds on VLDL secretion in vivo in rats was investigated. A 0.5% methyl cellulose suspension containing a test compound was orally administered to male SD rats. After 1 hour, a physiological saline solution of Triton WR-1339 (corresponding to 400 mg/kg) was injected through the caudal vein. After 4 hours, their blood was collected under anesthetization with diethyl ether. The total cholesterol and triglyceride in blood were measured by the use of “Cholesterol C Test Wako” and “Triglyceride G Test Wako” (both from Wako Pure Chemical Industries), respectively. The rats orally administered with the 0.5% methyl cellulose solution and then intravenously injected with physiological saline were used as a normal group, and those orally administered with the 0.5% methyl cellulose solution and then intravenously injected with physiological saline of Triton WR-1339 were used as a control group. The difference in the total cholesterol (TC) or triglyceride (TG) in the serum between the control group and the normal group was defined as the amount of secretion per hour, and the lowering effect in the amount of secretion of the test compound was represented by ED50.

Assay [4] deals with apo B-related lipoprotein secretion in Hep G2 cells. The experiment in a line: Measurement of apo B-related lipoprotein secretion in liver cells (Hep G2, enzyme immunoassay). Format: cell-based, human. To be noted: culture supernatant. As for the experimental part:
1. Measurement of Apo B-Related Lipoprotein Secretion in Liver Cells
Hep G2 cells were cultured in a 96-well plate using a 10% fetal bovine serum-containing Dulbecco's modified Eagle's medium (to be referred to as “10% FBS-containing DMEM” hereinafter). The medium was exchanged with a 10% FBS-containing DMEM that contained a DMSO solution of the test compound (DMSO final concentration 0.1%), and the cells were further incubated therein for 18 hours to obtain the culture supernatant. The culture supernatant obtained from a 10% FBS-containing DMEM that contained DMSO alone (final concentration 0.1%) was used as the control. The apo B-related lipoprotein produced in the culture supernatant was determined through an enzyme immunoassay in the manner mentioned below.
A solution of anti-human apolipoprotein B monoclonal antibody (4 μg/ml) was dispensed in 100 μl portions into a 96-well immunoassay plate and kept at 4° C. for 18 hours. Each well was washed three times with a phosphate buffer to which had been added 0.1% Tween 20 (to be referred to as “PBS-T” hereinafter), and 300 μl of a 4-fold diluted immune blocker “Block Ace” was added thereto and kept at 37° C. for 1 hour. The aforementioned culture supernatant was added to it, and kept at 37° C. for 3 hours. This was washed three times with PBS-T, and then 100 μl of a solution of caprine anti-human apolipoprotein B polyclonal antibody (2,000-fold dilution) was added to it and kept at 37° C. for 1 hour. This was washed three times with PBS-T, and then 100 μl of a solution of alkaline phosphatase-labeled anti-caprine IgG antibody (2,000-fold dilution) was added thereto and kept at 37° C. for 1 hour. This was washed four times with PBS-T, once with PBS and then with a carbonate buffer (pH 9.5), and 100 μl of a solution of an alkaline phosphatase substrate was added thereto and kept at room temperature for 5 minutes. A 50 μl portion of 0.2 M sodium hydroxide was added to it to stop the reaction, and the absorbance at 405 nm was measured. From the calibration curve based on a standard, human low-density lipoprotein, the absolute amount of apo B-related lipoprotein was obtained.

Setting [5] is: read-out: ED50 TC (total cholesterol secretion lowering effect).
Setting [6] is: read-out: ED50 TG (triglyceride secretion lowering effect).
The mark [7] stands for this setting: Homo sapiens, HepG2, 18 hours incubation.

Like-named read-outs stand apart in the source and are kept apart here.

On to `Cc1nc2c(c(C)c1CCC(=O)O)c1ccccc1n2Cc1ccc([C@@H](C(=O)N2CCN(c3ccccn3)CC2)C2CCOCC2)cc1` [Example 17, (−)-3-(2,4-Dimethyl-9-{4-[(S)-2-oxo-2-(4-pyridin-2-ylpiperazin-1-yl)-1-(tetrahydro-2H-pyran-4-yl)ethyl]benzyl}-9H-pyrido[2,3-b]indol-3-yl)propanoic acid], for which the “Lowering rate TG” value in assay [1] (dose 3 mg/kg) was found to be 86%. Also, the “Lowering rate non-HDL” value in assay [1] (dose 3 mg/kg) was 85%. Moreover, the results for the ED50 in assay [2], in assay [3] (setting [5]) and in assay [3] (setting [6]) were 0.14 mg/kg, 0.74 mg/kg and 0.39 mg/kg, respectively. Further, the IC50 (in general, the concentration that gives 50% inhibition) in assay [4] (setting [7]) was 4.8 nM.

As to `CCCN1CCN(C(=O)[C@H](c2ccc(Cn3c4ccccc4c4c(C)c(CCC(=O)O)c(C)nc43)cc2)C2CCOCC2)CC1` [Example 18, (+)-3-(2,4-Dimethyl-9-{4-[(S)-2-oxo-2-(4-propylpiperazin-1-yl)-1-(tetrahydro-2H-pyran-4-yl)ethyl]benzyl}-9H-pyrido[2,3-b]indol-3-yl)propanoic acid], the “Lowering rate TG” value in assay [1] (dose 3 mg/kg) is listed as 87%. Besides, in assay [1] (dose 3 mg/kg), the “Lowering rate non-HDL” value came to 85%. Also, the ED50 in assay [2] is 0.2 mg/kg; in assay [3] (setting [5]), 0.5 mg/kg; in assay [3] (setting [6]) it was 0.52 mg/kg. Inhibition in assay [4] (setting [7]) was half-maximal at 3 nM (IC50).

Take `Cc1nc2c(c(C)c1CCC(=O)O)c1ccccc1n2Cc1ccc([C@@H](C(=O)NCc2ccccc2)C2CCOCC2)cc1` [Example 19, (−)-3-(9-{4-[(S)-(benzylcarbamoyl)(tetrahydro-2H-pyran-4-yl)methyl]benzyl}-2,4-dimethyl-9H-pyrido[2,3-b]indol-3-yl)propanoic acid]: in assay [1] (dose 3 mg/kg), the “Lowering rate TG” value is given as 91%. Further, the “Lowering rate non-HDL” value in assay [1] (dose 3 mg/kg) worked out at 95%. The ED50 came to 0.059 mg/kg in assay [2], 0.17 mg/kg in assay [3] (setting [5]) and 0.24 mg/kg in assay [3] (setting [6]). The compound also displayed an IC50 in assay [4] (setting [7]) of 1.7 nM.

In the case of `Cc1nc2c(c(C)c1CCC(=O)O)c1cc(F)ccc1n2Cc1ccc([C@@H](C(=O)NCc2ccccc2)C2CCOCC2)cc1` [Example 23], in assay [1] (dose 3 mg/kg), the “Lowering rate TG” value worked out at 96% and the “Lowering rate non-HDL” value is 91%. Also, the “ED50 non-HDL cholesterol lowering effect” value in assay [2] came to 0.063 mg/kg. Further, in assay [3], the “ED50 TC (total cholesterol secretion lowering effect)” value is 0.27 mg/kg and the “ED50 TG (triglyceride secretion lowering effect)” value came to 0.19 mg/kg.

`Cc1nc2c(c(C)c1CCC(=O)O)c1ccc(F)cc1n2Cc1ccc([C@@H](C(=O)NCc2ccccc2)C2CCOCC2)cc1` [Example 24]: in assay [1] (dose 3 mg/kg), the “Lowering rate TG” value was 95% and the “Lowering rate non-HDL” value worked out at 96%. In addition, the “ED50 non-HDL cholesterol lowering effect” value in assay [2] is given as 0.040 mg/kg. In assay [3], the “ED50 TC (total cholesterol secretion lowering effect)” value was found to be 0.21 mg/kg and the “ED50 TG (triglyceride secretion lowering effect)” value turned out to be 0.22 mg/kg.

In the case of `Cc1nc2c(c(C)c1CCC(=O)O)c1ccccc1n2Cc1ccc([C@@H](C(=O)N(C)C)C2CCOCC2)cc1` [Example 37, 3-(2,4-dimethyl-9-{4-[(S)-(dimethylcarbamoyl)(tetrahydro-2H-pyran-4-yl)methyl]benzyl}-9H-pyrido[2,3-b]indol-3-yl)propanoic acid], in assay [1] (dose 3 mg/kg), the “Lowering rate TG” value came to 57% and the “Lowering rate non-HDL” value was found to be 62%. Moreover, the ED50 in assay [3] (setting [5]) came out at 0.71 mg/kg. For the same compound, the ED50 in assay [3] (setting [6]) was found to be 0.71 mg/kg. Half-maximal inhibition in assay [4] (setting [7]) (IC50) required 29 nM.

On to `Cc1nc2c(c(C)c1CCC(=O)O)c1ccccc1n2Cc1ccc([C@@H](C(=O)N2CC=CCC2)C2CCOCC2)cc1` [Example 40], for which, in assay [1] (dose 3 mg/kg), the “Lowering rate TG” value worked out at 81% and the “Lowering rate non-HDL” value came to 74%. For the same compound, the “ED50 non-HDL cholesterol lowering effect” value in assay [2] is given as <0.1 mg/kg. In addition, in assay [3], the “ED50 TC (total cholesterol secretion lowering effect)” value was found to be 0.47 mg/kg and the “ED50 TG (triglyceride secretion lowering effect)” value stood at 0.28 mg/kg. In assay [4] (18 hours incubation), this compound had an IC50 of 12 nM.

Take `Cc1nc2c(c(C)c1CCC(=O)O)c1ccccc1n2Cc1ccc([C@@H](C(=O)N2CCC(c3ccccc3)CC2)C2CCOCC2)cc1` [Example 45]: in assay [1] (dose 3 mg/kg), the “Lowering rate TG” value is 92% and the “Lowering rate non-HDL” value was determined as 86%. Also, in assay [2], the “ED50 non-HDL cholesterol lowering effect” value stood at 0.41 mg/kg. For the same compound, half-maximal inhibition in assay [4] (18 hours incubation) (IC50) required 28 nM.

Regarding `CCCCCN1CCN(C(=O)[C@H](c2ccc(Cn3c4ccccc4c4c(C)c(CCC(=O)O)c(C)nc43)cc2)C2CCOCC2)CC1` [Example 50], in assay [1] (dose 3 mg/kg), the “Lowering rate TG” value turned out to be 94% and the “Lowering rate non-HDL” value came out at 90%. Also, in assay [2], the “ED50 non-HDL cholesterol lowering effect” value is given as 0.19 mg/kg. Besides, in assay [3], the “ED50 TC (total cholesterol secretion lowering effect)” value is reported as 0.48 mg/kg and the “ED50 TG (triglyceride secretion lowering effect)” value came to 0.41 mg/kg. The compound further showed an IC50 in assay [4] (18 hours incubation) of 3.2 nM.

As to `COCCCN1CCN(C(=O)[C@H](c2ccc(Cn3c4ccccc4c4c(C)c(CCC(=O)O)c(C)nc43)cc2)C2CCOCC2)CC1` [Example 56], in assay [1] (dose 3 mg/kg), the “Lowering rate TG” value is recorded as 41% and the “Lowering rate non-HDL” value was 63%. In addition, the “ED50 non-HDL cholesterol lowering effect” value in assay [2] is recorded as 1.1 mg/kg. Moreover, in assay [3], the “ED50 TC (total cholesterol secretion lowering effect)” value amounted to 0.9 mg/kg and the “ED50 TG (triglyceride secretion lowering effect)” value turned out to be 1.3 mg/kg. Half-maximal inhibition in assay [4] (18 hours incubation) (IC50) was put at 7.2 nM.

On to `Cc1nc2c(c(C)c1CCC(=O)O)c1ccccc1n2Cc1ccc([C@@H](C(=O)N2CCN(C3CCC3)CC2)C2CCOCC2)cc1` [Example 57], for which, in assay [1] (dose 3 mg/kg), the “Lowering rate TG” value stood at 89% and the “Lowering rate non-HDL” value is 86%. Besides, the “ED50 non-HDL cholesterol lowering effect” value in assay [2] amounted to 0.88 mg/kg. For the same compound, in assay [3], the “ED50 TC (total cholesterol secretion lowering effect)” value came to 0.74 mg/kg and the “ED50 TG (triglyceride secretion lowering effect)” value was 0.56 mg/kg. Besides, 8 nM corresponded to half-maximal inhibition in assay [4] (18 hours incubation) (IC50).

In the case of `Cc1nc2c(c(C)c1CCC(=O)O)c1ccccc1n2Cc1ccc([C@@H](C(=O)NCc2cccc(F)c2)C2CCOCC2)cc1` [Example 117], in assay [1] (dose 3 mg/kg), the “Lowering rate TG” value was 98% and the “Lowering rate non-HDL” value was 98%. The “ED50 non-HDL cholesterol lowering effect” value in assay [2] was 0.032 mg/kg. This compound showed an IC50 in assay [4] (18 hours incubation) of 2.2 nM.

For `Cc1cc(C)c2c3ccccc3n(Cc3ccc([C@@H](C(=O)N[C@@H](CO)c4ccccc4)C4CCCC4)cc3)c2n1` [Implitapide, reference compound], in assay [1] (dose 10 mg/kg), the “Lowering rate TG” value came to 15% and the “Lowering rate non-HDL” value was 14%. Further, in assay [2], the “ED50 non-HDL cholesterol lowering effect” value turned out to be 1.0 mg/kg. For the same compound, in assay [3], the “ED50 TC (total cholesterol secretion lowering effect)” value is given as 1.0 mg/kg and the “ED50 TG (triglyceride secretion lowering effect)” value is recorded as 1.1 mg/kg.
